The subject of data set [1] is CC(=O)N[C@H](Cc1c[nH]c2ccccc12)C(=O)O. Kind of data set: Inhibition/kinetics test of purified mutant D-aminoacylase R374-0017. The format is biochemical, Alcaligenes denitrificans subsp. xylosoxydans MI-4. Particulars: other: 30° C., pH7.5, for N-acetyl-D-tryptophan, pH 7.5. As for the experimental part:
(§1) The enzyme reaction can be achieved by incubating 1.0 ml of a reaction solution containing 20 mM N-acetyl-D-tryptophan (Sigma), 50 mM Tris-hydrochloride buffer (pH 7.5), and an enzyme solution at 30° C. for 10 minutes. Then, the reaction is stopped by adding 0.5 ml of a stop solution containing TCA (comprising 0.11 M trichloroacetic acid, 0.22 M sodium acetate, and 0.33 M acetic acid). The amount of D-tryptophan produced can be determined by TNBS method (Biosci. Biotech. Biochem., 58, 24 (1994)).
(§2) For example, 0.25 ml of 100 mM Na2B4O7 is added to 0.25 ml of the stop solution, 10 μl of 110 mM TNBS (trinitrobenzenesulfonic acid) solution is added to the mixed solution, and immediately thereafter, the resulting mixture is stirred. After the mixture is allowed to stand for five minutes, 1 ml of 100 mM NaHPO4 containing 1.5 mM Na2SO3 is added to the mixture to stop the color reaction. Then, the absorbance of the solution is determined at 420 nm. One unit of the enzyme activity is defined as the amount of enzyme that catalyzes the production of 1 μmol of D-tryptophan at 30° C. for one minute.
(§3) The rate constants of the reaction with N-acetyl-D-tryptophan and N-acetyl-L-tryptophan that is catalyzed by the thus-purified wild-type derived from Alcaligenes denitrificans subsp. xylosoxydans MI-4 or mutant D-aminoacylases of the present invention, can be determined according to the methods described in “Lectures for Biochemical Experiments 21: Introduction to Experimental Approach to Enzyme Kinetics” and “Basic Experimental Methods for Proteins and Enzymes, 2nd Ed.” Michaelis constant is represented by Km; the maximal rate is Vmax; inhibition constant is Ki; the constant for reaction inhibition by excess substrate is Ks′.
(§4) The mutant D-aminoacylase R374-0017 was purified from an E. coli transformant having the plasmid pSL-AD09 that contains DNA encoding the mutant D-aminoacylase R374-0017 by the same method as described in Example 19.
(§5) The D-aminoacylases purified in Examples 20 to 23 were tested for the inhibition by N-acetyl-D-tryptophan and N-acetyl-L-tryptophan. The reaction rate constants for N-acetyl-D-tryptophan and N-acetyl-L-tryptophan were determined according to the methods described in “Lectures for Biochemical Experiments 21: Introduction to Experimental Approach to Enzyme Kinetics” and “Basic Experimental Methods for Proteins and Enzymes, 2nd Ed.” Michaelis constant is represented by Km; the maximal rate is Vmax; inhibition constant is Ki; the constant for reaction inhibition by excess substrate is represented by Ks′. Km and Vmax were determined from a Lineweaver-Burk reciprocal plot; Ki was determined from a second-order plot (Royer); and Ks′ was determined from a [S] −1/v plot.

Data set [2] has as its system Nocardioides thermolilacinus D-aminoacylase. Particulars: at concentrations as high as 100 g/l; cited from earlier work.
Data set [3] addresses T1, Alcaligenes denitrificans subsp. xylosoxydans MI-4 D-aminoacylase mutant A154-0043 (A154V of SEQ ID NO: 1) (Alcaligenes xylosoxydans xylosoxydans, UniProt P72349, A154V).
T1 construct: made in house; host or cells: E. coli
Kind of data set: Inhibition/kinetics test of purified mutant D-aminoacylase A154-0043. The class given is biochemical. Here is the method: as §1, §2, §3
(§6) The mutant D-aminoacylase A154-0043 was purified from an E. coli transformant having the plasmid pSL-AD07 that contains DNA encoding the mutant D-aminoacylase A154-0043 by the same method as described in Example 19.
as §5

Data set [4] deals with T2, Alcaligenes denitrificans subsp. xylosoxydans MI-4 D-aminoacylase mutant 3AD-0089 (A154V/M347A/R374F of SEQ ID NO: 1) (Alcaligenes xylosoxydans xylosoxydans, UniProt P72349, A154V/M347A/R374F).
T2 construct: made in house; host or cells: E. coli
Kind of data set: Inhibition/kinetics test of purified mutant D-aminoacylase 3AD-0089. The class given is biochemical. Here is the method:
as §1, §2, §3
(§7) The mutant D-aminoacylase 3AD-0089 was purified from an E. coli transformant having the plasmid pSL-AD10 that contains DNA encoding the mutant D-aminoacylase 3AD-0089 by the same method as described in Example 19.
as §5

For data set [5], the target named is T3, Alcaligenes denitrificans subsp. xylosoxydans MI-4 D-aminoacylase mutant M347-0133 (M347A of SEQ ID NO: 1) (Alcaligenes xylosoxydans xylosoxydans, UniProt P72349, M347A).
T3 construct: made in house; host or cells: E. coli
In words: Inhibition/kinetics test of purified mutant D-aminoacylase M347-0133. The class given is biochemical. As for the experimental part: as §1, §2, §3
(§8) The mutant D-aminoacylase M347-0133 was purified from an E. coli transformant having the plasmid pSL-AD08 that contains DNA encoding the mutant D-aminoacylase M347-0133 by the same method as described in Example 19.
as §5

Data set [6] addresses T4, Alcaligenes denitrificans subsp. xylosoxydans MI-4 D-aminoacylase mutant R374-0017 (R374F of SEQ ID NO: 1) (Alcaligenes xylosoxydans xylosoxydans, UniProt P72349, R374F).
T4 construct: made in house; host or cells: E. coli
Kind of data set: Inhibition/kinetics test of purified mutant D-aminoacylase R374-0017. The class given is biochemical. As for the experimental part: as §1, §2, §3, §4, §5

Data set [7] concerns the target Alcaligenes denitrificans subsp. xylosoxydans MI-4 D-aminoacylase, wild-type, SEQ ID NO: 1 (Alcaligenes xylosoxydans xylosoxydans, UniProt P72349). In words: Inhibition/kinetics test of purified wild-type D-aminoacylase.
For data set [8], the system named is Methylobacterium mesophilicum D-aminoacylase. To be noted: at concentrations as high as 100 g/l; cited from earlier work.
Data set [9] deals with CC(=O)N[C@H](Cc1c[nH]c2ccccc12)C(=O)O. In words: Inhibition/kinetics test of purified mutant D-aminoacylase 3AD-0089. Particulars: other: 30° C., pH7.5, for N-acetyl-D-tryptophan, pH 7.5. The format is biochemical, Alcaligenes denitrificans subsp. xylosoxydans MI-4. As for the experimental part: as §1, §2, §3, §7, §5
Data set [10] has the same test system. In words: purified protein, by the assay type. Particulars: other: 30° C., pH7.5, for N-acetyl-D-tryptophan, pH 7.5.
The test system is the same in data set [11]. Kind of data set: Inhibition/kinetics test of purified mutant D-aminoacylase M347-0133. The format is biochemical, Alcaligenes denitrificans subsp. xylosoxydans MI-4. Particulars: other: 30° C., pH7.5, for N-acetyl-D-tryptophan, pH 7.5. As for the experimental part: as §1, §2, §3, §8, §5
For data set [12] the test system is unchanged. In words: Inhibition/kinetics test of purified mutant D-aminoacylase A154-0043. Particulars: other: 30° C., pH7.5, for N-acetyl-D-tryptophan, pH 7.5. The class given is biochemical, Alcaligenes denitrificans subsp. xylosoxydans MI-4. As for the experimental part:
as §1, §2, §3, §6, §5

The nature of data set [13]: D-aminoacylase activity assay (20 mM N-acetyl-D-tryptophan, TNBS method). The format is biochemical. Particulars: cell extract of E. coli JM109 transformant. Here is the method:
as §1, §2

Setting [14] is: 30° C., pH7.5, for N-acetyl-D-tryptophan.
[15] abbreviates: 30° C., pH7.5, substrate inhibition by N-acetyl-D-tryptophan.

T2 sequence (P72349 whole entry A154V/M347A/R374F): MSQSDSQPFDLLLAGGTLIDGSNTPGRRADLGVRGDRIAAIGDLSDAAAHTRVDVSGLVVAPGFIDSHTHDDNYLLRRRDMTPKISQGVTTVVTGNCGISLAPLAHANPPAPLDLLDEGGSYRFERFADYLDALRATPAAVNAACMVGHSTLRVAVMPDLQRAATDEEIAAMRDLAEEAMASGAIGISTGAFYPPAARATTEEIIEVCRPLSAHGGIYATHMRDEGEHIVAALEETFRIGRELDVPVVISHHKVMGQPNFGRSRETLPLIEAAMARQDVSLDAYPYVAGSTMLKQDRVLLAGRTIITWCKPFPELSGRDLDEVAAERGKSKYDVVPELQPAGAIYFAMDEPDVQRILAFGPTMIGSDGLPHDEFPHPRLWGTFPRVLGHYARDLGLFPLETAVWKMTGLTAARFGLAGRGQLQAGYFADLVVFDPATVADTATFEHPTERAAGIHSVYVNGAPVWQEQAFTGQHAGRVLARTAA
T4 sequence (P72349 whole entry R374F): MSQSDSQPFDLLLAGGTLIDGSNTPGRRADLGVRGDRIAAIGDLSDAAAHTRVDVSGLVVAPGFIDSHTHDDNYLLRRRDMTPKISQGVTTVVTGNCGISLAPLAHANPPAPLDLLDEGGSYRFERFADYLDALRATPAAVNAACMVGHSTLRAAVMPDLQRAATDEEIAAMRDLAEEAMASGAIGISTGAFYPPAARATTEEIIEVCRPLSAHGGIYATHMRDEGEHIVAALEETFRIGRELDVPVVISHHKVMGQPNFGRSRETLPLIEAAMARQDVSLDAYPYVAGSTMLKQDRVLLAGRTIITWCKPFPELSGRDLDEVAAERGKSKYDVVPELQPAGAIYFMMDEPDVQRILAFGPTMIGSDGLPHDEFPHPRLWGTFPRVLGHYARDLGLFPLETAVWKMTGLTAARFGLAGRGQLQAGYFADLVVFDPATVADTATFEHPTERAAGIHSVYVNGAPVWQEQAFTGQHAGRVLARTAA
T3 sequence (P72349 whole entry M347A): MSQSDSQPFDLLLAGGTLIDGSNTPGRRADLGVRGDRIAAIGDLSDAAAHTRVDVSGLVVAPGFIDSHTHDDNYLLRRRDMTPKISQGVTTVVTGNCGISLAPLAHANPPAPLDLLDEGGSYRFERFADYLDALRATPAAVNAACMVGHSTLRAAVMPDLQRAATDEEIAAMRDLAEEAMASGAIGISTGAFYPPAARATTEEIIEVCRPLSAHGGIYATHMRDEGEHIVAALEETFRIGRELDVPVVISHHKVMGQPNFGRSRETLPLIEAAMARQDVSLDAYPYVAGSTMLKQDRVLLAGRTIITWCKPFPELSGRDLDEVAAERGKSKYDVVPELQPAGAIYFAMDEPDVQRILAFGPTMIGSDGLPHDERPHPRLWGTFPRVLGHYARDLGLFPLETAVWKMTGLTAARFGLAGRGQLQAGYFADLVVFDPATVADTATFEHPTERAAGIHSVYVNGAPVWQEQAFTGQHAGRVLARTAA
T1 sequence (P72349 whole entry A154V): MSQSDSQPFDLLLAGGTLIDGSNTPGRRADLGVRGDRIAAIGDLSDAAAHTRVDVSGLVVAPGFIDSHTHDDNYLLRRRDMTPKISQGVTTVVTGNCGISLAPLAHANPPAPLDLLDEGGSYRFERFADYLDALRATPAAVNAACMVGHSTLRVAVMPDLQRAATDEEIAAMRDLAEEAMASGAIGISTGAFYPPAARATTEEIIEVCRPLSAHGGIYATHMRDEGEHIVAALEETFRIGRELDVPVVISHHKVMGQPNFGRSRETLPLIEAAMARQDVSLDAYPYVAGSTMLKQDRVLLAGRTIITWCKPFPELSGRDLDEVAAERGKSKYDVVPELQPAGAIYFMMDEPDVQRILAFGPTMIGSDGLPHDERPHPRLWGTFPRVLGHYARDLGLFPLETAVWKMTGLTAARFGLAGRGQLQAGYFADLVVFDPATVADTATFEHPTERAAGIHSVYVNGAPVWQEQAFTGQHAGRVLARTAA

A word on the Km: it is the concentration of substrate that gives half-maximal velocity. For “Alcaligenes denitrificans subsp. xylosoxydans MI-4 D-aminoacylase mutant R374-0017 (R374F of SEQ ID NO: 1) (Achromobacter xylosoxidans; R374F)”, the Km in [1] was 1940 µM.
Consider `CC(=O)N[C@H](Cc1c[nH]c2ccccc12)C(=O)O` [N-acetyl-D-tryptophan], for which the “inhibition by the substrate” value in data set [2] and in data set [8] was “hardly inhibited” in each case. Further, the “Vmax (Lineweaver-Burk reciprocal plot)” value came out at 1031 in [3] (setting [14]); 357 in data set [4] (setting [14]); 1000 in data set [5] (setting [14]); 1000 in [6] (setting [14]); 685 in data set [7] (setting [14]). Further, the “Ks′ (constant for reaction inhibition by excess substrate; [S]−1/v plot)” value is 13.67 in data set [3] (setting [15]), 77.00 in data set [5] (setting [15]), 93.00 in data set [6] (setting [15]) and 1.29 in data set [7] (setting [15]). For the same molecule, the substrate inhibition result in data set [4] (in the presence of 99 mM N-acetyl-D-tryptophan) is given as “not detectable”.
As to “Alcaligenes denitrificans subsp. xylosoxydans MI-4 D-aminoacylase mutant 3AD-0089 (A154V/M347A/R374F of SEQ ID NO: 1) (Achromobacter xylosoxidans; A154V/M347A/R374F)”, the Km in data set [9] was 1460 µM.
In the case of “Alcaligenes denitrificans subsp. xylosoxydans MI-4 D-aminoacylase, wild-type, SEQ ID NO: 1 (Achromobacter xylosoxidans)”, the Km in data set [10] worked out at 2530 µM.
Turning to “Alcaligenes denitrificans subsp. xylosoxydans MI-4 D-aminoacylase mutant M347-0133 (M347A of SEQ ID NO: 1) (Achromobacter xylosoxidans; M347A)”, the Km in data set [11] stood at 1420 µM.
One may read the Ki as a measure of affinity in units of concentration, obtained from inhibition or displacement. In the case of `CC(=O)N[C@@H](Cc1c[nH]c2ccccc12)C(=O)O` [N-acetyl-L-tryptophan], the Ki in data set [3] was found to be 6.4 mM; in data set [5], 12.3 mM; in [6] it was 7.46 mM; in data set [7] it was 2.6 mM. Also, the competitive inhibition entry in data set [4] (in the presence of 89 mM N-acetyl-L-tryptophan) is given as “not detectable”.
As for “Alcaligenes denitrificans subsp. xylosoxydans MI-4 D-aminoacylase mutant A154-0043 (A154V of SEQ ID NO: 1) (Achromobacter xylosoxidans; A154V)”, in data set [12], the Km turned out to be 3440 µM.

B1: D-aminoacylase produced with the modified D-aminoacylase gene: wild-type amino acid sequence (SEQ ID NO: 1) expressed from codon-modified gene SEQ ID NO: 3 in plasmid pSL-ADD6 (protein)
chain: MSQSDSQPFDLLLAGGTLIDGSNTPGRRADLGVRGDRIAAIGDLSDAAAHTRVDVSGLVVAPGFIDSHTHDDNYLLRRRDMTPKISQGVTTVVTGNCGISLAPLAHANPPAPLDLLDEGGSYRFERFADYLDALRATPAAVNAACMVGHSTLRAAVMPDLQRAATDEEIAAMRDLAEEAMASGAIGISTGAFYPPAARATTEEIIEVCRPLSAHGGIYATHMRDEGEHIVAALEETFRIGRELDVPVVISHHKVMGQPNFGRSRETLPLIEAAMARQDVSLDAYPYVAGSTMLKQDRVLLAGRTIITWCKPFPELSGRDLDEVAAERGKSKYDVVPELQPAGAIYFMMDEPDVQRILAFGPTMIGSDGLPHDERPHPRLWGTFPRVLGHYARDLGLFPLETAVWKMTGLTAARFGLAGRGQLQAGYFADLVVFDPATVADTATFEHPTERAAGIHSVYVNGAPVWQEQAFTGQHAGRVLARTAA
modifications: Alcaligenes denitrificans subsp. xylosoxydans MI-4
As to B1, the “D-aminoacylase activity of cell extract” value in [13] amounted to 86 U/mg.

The record behind these values is US7282356B2, “D-aminoacylase mutants” (Daicel Chemical Industries, Ltd., priority 2002, dated 2007).
